Reference: patent publication US20220125959A1, “PROSTATE-SPECIFIC MEMBRANE ANTIGEN (PSMA) INHIBITORS AS DIAGNOSTIC AND RADIONUCLIDE THERAPEUTIC AGENTS” (FIVE ELEVEN PHARMA INC., priority 2019, published 2022)
Where “and” joins values, the source holds several entries; their conditions need not be identical. Equal values may be shown once.

Tested on: PC3-PIP (PSMA positive) and PC-3 tumors (PSMA negative)
Test: Biodistribution of 177Lu labeled compounds 4 and 7 in tumor bearing nude mice
Type: in vivo, CD-1 male nude mice
Method: ^177Lu labeling: To 10 μg ligand (1 mg/mL DMSO) were added 15 μL of 2.0 N NaOAc, 400 μL 0.05 N HCl, and 20 μL ^177Lu-solution (780 μCi (Capintec setting 450 (reading×10)). The reaction was heated with a heating block at 95° C. for 1 hour in a 3 mL closed vial. After cooling, the sample was analyzed by HPLC (HPLC: Eclipse XDB-C18 150×4.6 mm, gradient, 1 mL/min; A: 0.1% TFA in water; B: 0.1% TFA in ACN: 0-4 min A/B 85/15%; 4-11 min: from 85/15 to 30/70%; 11-14 min: from 30/70% to 85/15%). Radiochemical purity of [^177Lu]4 (FIG. 2) and [^177Lu]7 was >98% and injected doses were stable at 48 hr after formulation.
For iv injection 150 μL of labeled solution was diluted with saline to 3.75mL. Mice were injected with 150 μL of formulated dose. Injected radioactivity was 100 μCi and PSMA ligand amount was constant at 0.72 nmole/mouse.
Biodistribution of [^68Ga]4, [^177Lu]4 and [^177Lu]7 was determined in nude mice bearing PIP PC3 (PSMA positive) and PC3 (PSMA negative) tumors on the left and right shoulder, respectively, over a period of 192 h (Table 3a, 3b and 3c). […] The uptake in PC3 tumors (PSMA negative) of both ligands, [^177Lu]4 and [^177Lu]7, was clearly much lower than those of PC-3 PIP tumors (PSMA positive).

Compound: O=C(O)CCC(C(=O)O)N1CCN(CC(=O)O)CCN(C(CCC(=O)NCC(=O)N[C@@H](Cc2ccc(OCC(=O)N[C@@H](Cc3ccccc3)C(=O)NCCCC[C@H](NC(=O)N[C@@H](CCC(=O)O)C(=O)O)C(=O)O)cc2)C(=O)O)C(=O)O)CCN(CC(=O)O)CC1.[177Lu] (some centres unmarked) [[^177Lu]4]
- Biodistribution: Blood (1 hr): 0.27 ± 0.07 % dose/g
- Biodistribution: Bone (1 hr): 0.15 ± 0.05 % dose/g
- Biodistribution: Brain (1 hr): 0.02 ± 0.01 % dose/g
- Biodistribution: Heart (1 hr): 0.17 ± 0.03 % dose/g
- Biodistribution: Intestine (1 hr): 0.19 ± 0.08 % dose/g
- Biodistribution: Kidney (1 hr): 45.59 ± 20.51 % dose/g
- Biodistribution: Liver (1 hr): 0.18 ± 0.05 % dose/g
- Biodistribution: Lung (1 hr): 0.63 ± 0.13 % dose/g
- Biodistribution: Muscle (1 hr): 0.18 ± 0.06 % dose/g
- Biodistribution: PC3 tumor (1 hr): 1.13 ± 0.61 % dose/g
- Biodistribution: PIP PC3 tumor (1 hr): 15.27 ± 2.93 % dose/g
- Biodistribution: Pancreas (1 hr): 0.43 ± 0.20 % dose/g
- Biodistribution: Skin (1 hr): 0.35 ± 0.07 % dose/g
- Biodistribution: Spleen (1 hr): 1.42 ± 1.44 % dose/g
- Biodistribution: Stomach (1 hr): 0.20 ± 0.10 % dose/g
- Biodistribution: Blood (4 hrs): 0.02 % dose/g and 0.02 ± 0.01 % dose/g
- Biodistribution: Bone (4 hrs): 0.05 ± 0.01 % dose/g
- Biodistribution: Brain (4 hrs): 0.01 ± 0.00 % dose/g
- Biodistribution: Heart (4 hrs): 0.11 ± 0.07 % dose/g
- Biodistribution: Intestine (4 hrs): 0.21 ± 0.11 % dose/g
- Biodistribution: Kidney (4 hrs): 21.17 ± 5.08 % dose/g
- Biodistribution: Liver (4 hrs): 0.09 ± 0.03 % dose/g
- Biodistribution: Lung (4 hrs): 0.20 ± 0.05 % dose/g
- Biodistribution: Muscle (4 hrs): 0.05 ± 0.01 % dose/g
- Biodistribution: PC3 tumor (4 hrs): 0.28 ± 0.08 % dose/g
- Biodistribution: PIP PC3 tumor (4 hrs): 22.38±3.50 % dose/g
- Biodistribution: Pancreas (4 hrs): 0.18 ± 0.10 % dose/g
- Biodistribution: Skin (4 hrs): 0.12 ± 0.05 % dose/g
- Biodistribution: Spleen (4 hrs): 0.53 ± 0.26 % dose/g
- Biodistribution: Stomach (4 hrs): 0.12 ± 0.02 % dose/g
- Biodistribution: Blood (24 hrs (1 day)): 0.002 ± 0.000 % dose/g
- Biodistribution: Bone (24 hrs (1 day)): 0.022 ± 0.010 % dose/g
- Biodistribution: Brain (24 hrs (1 day)): 0.006 ± 0.001 % dose/g
- Biodistribution: Heart (24 hrs (1 day)): 0.011 ± 0.002 % dose/g
- Biodistribution: Intestine (24 hrs (1 day)): 0.132 ± 0.114 % dose/g
- Biodistribution: Kidney (24 hrs (1 day)): 2.291 ± 0.761 % dose/g
- Biodistribution: Liver (24 hrs (1 day)): 0.036 ± 0.003 % dose/g
- Biodistribution: Lung (24 hrs (1 day)): 0.024 ± 0.005 % dose/g
- Biodistribution: Muscle (24 hrs (1 day)): 0.012 ± 0.003 % dose/g
- Biodistribution: PC3 tumor (24 hrs (1 day)): 0.071 ± 0.010 % dose/g
- Biodistribution: PIP PC3 tumor (24 hrs (1 day)): 11.29 ± 2.62 % dose/g
- Biodistribution: Pancreas (24 hrs (1 day)): 0.015 ± 0.004 % dose/g
- Biodistribution: Skin (24 hrs (1 day)): 0.059 ± 0.029 % dose/g
- Biodistribution: Spleen (24 hrs (1 day)): 0.047 ± 0.005 % dose/g
- Biodistribution: Stomach (24 hrs (1 day)): 0.076 ± 0.026 % dose/g
- Biodistribution: Blood (48 hrs (2 days)): 0.003 ± 0.002 % dose/g
- Biodistribution: Bone (48 hrs (2 days)): 0.030 ± 0.010 % dose/g
- Biodistribution: Brain (48 hrs (2 days)): 0.006 ± 0.002 % dose/g
- Biodistribution: Heart (48 hrs (2 days)): 0.010 ± 0.000 % dose/g
- Biodistribution: Intestine (48 hrs (2 days)): 0.059 ± 0.036 % dose/g
